Source: US11780839B2, “Compounds for treating Huntington's disease” (PTC THERAPEUTICS, INC., priority 2018, dated 2023)

The molecules below were run on Endogenous Huntingtin Protein (assay: Endogenous Huntingtin Protein Assay (ELISA-based Meso Scale Discovery electrochemiluminescence)). Conditions: MSD electrochemiluminescence, Table 1.
Assay type: cell-based
Procedure, shortened: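 Huntingtin was captured overnight at 4 °C on plates coated with 1 μg/mL MW1 (polyQ-expanded) or MAB2166 antibody and BSA-blocked. Detection used a rabbit monoclonal and then a SULFO-TAG goat anti-rabbit antibody (0.25 μg/mL, 1 h each, room temperature). Signal was read by electrochemiluminescence.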

| IC50 [nM] | SMILES |
| --- | --- |
| ≤ 100 | Cn1cc(-c2ccc(-c3cnc(N4CC[C@H](NC5CCC5)C4)nn3)c(O)c2)cn1 [Cpd 407, 2-{3-[(3S)-3-(cyclobutylamino)pyrrolidin-1-yl]-1,2,4-triazin-6-yl}-5-(1-methyl-1H-pyrazol-4-yl)phenol] |
| ≤ 100 | Oc1cc(-c2cn[nH]c2)ccc1-c1cnc(N2CCC(NC3CCC(F)(F)C3)C2)nn1 (stereo not drawn) [Cpd 409, 2-(3-{3-[(3,3-difluorocyclopentyl)amino]pyrrolidin-1-yl}-1,2,4-triazin-6-yl)-5-(1H-pyrazol-4-yl)phenol] |
| ≤ 100 | CN(C)CC1CCN(c2ncc(-c3ccc(-c4cn[nH]c4)cc3O)nn2)C1 (stereo not drawn) [Cpd 410, 2-(3-{3-[(dimethylamino)methyl]pyrrolidin-1-yl}-1,2,4-triazin-6-yl)-5-(1H-pyrazol-4-yl)phenol] |
| ≤ 100 | CNCC1CCN(c2ncc(-c3ccc(-c4cn[nH]c4)cc3O)nn2)C1 (stereo not drawn) [Cpd 413, 2-(3-{3-[(methylamino)methyl]pyrrolidin-1-yl}-1,2,4-triazin-6-yl)-5-(1H-pyrazol-4-yl)phenol] |
| ≤ 100 | CC(C)NC(C)C1CCN(c2ncc(-c3ccc(-c4cn[nH]c4)cc3O)nn2)C1 (stereo not drawn) [Cpd 414, 2-[3-(3-{1-[(propan-2-yl)amino]ethyl}pyrrolidin-1-yl)-1,2,4-triazin-6-yl]-5-(1H-pyrazol-4-yl)phenol] |
| ≤ 100 | Oc1cc(-c2cn[nH]c2)ccc1-c1cnc(N2CCC(CNC3CCC3)C2)nn1 (stereo not drawn) [Cpd 415, 2-(3-{3-[(cyclobutylamino)methyl]pyrrolidin-1-yl}-1,2,4-triazin-6-yl)-5-(1H-pyrazol-4-yl)phenol] |
| ≤ 100 | Cn1cc(-c2ccc(-c3cnc(N4CCC(CNC5CCC5)C4)nn3)c(O)c2)cn1 (stereo not drawn) [Cpd 416, 2-(3-{3-[(cyclobutylamino)methyl}pyrrolidin-1-yl}-1,2,4-triazin-6-yl)-5-(1-methyl-1H-pyrazol-4-yl)phenol] |
| ≤ 100 | CC(C)(C)NC1CCN(c2ncc(-c3ccc(-c4cn[nH]c4)c(F)c3O)nn2)C1 (stereo not drawn) [Cpd 418, 6-{3-[3-(tert-butylamino)pyrrolidin-1-yl]-1,2,4-triazin-6-yl}-2-fluoro-3-(1H-pyrazol-4-yl)phenol] |
| ≤ 100 | CC1(C)CC(Oc2cnc(-c3ccc(-c4cn[nH]c4)cc3O)nn2)CC(C)(C)N1 [Cpd 419, 5-(1H-pyrazol-4-yl)-2-{6-[(2,2,6,6-tetramethylpiperidin-4-yl)oxy]-1,2,4-triazin-3-yl}phenol] |
| ≤ 100 | Oc1cc(-c2cn[nH]c2)ccc1-c1cnc(N2CCC(NC3CCC(F)C3)C2)nn1 (stereo not drawn) [Cpd 420, 2-(3-{3-[(3-fluorocyclopentyl)amino]pyrrolidin-1-yl}-1,2,4-triazin-6-yl)-5-(1H-pyrazol-4-yl)phenol] |
| ≤ 100 | Oc1cc(-c2cn[nH]c2)ccc1-c1cnc(N2CCC(C3(NC4CCOCC4)CC3)C2)nn1 (stereo not drawn) [Cpd 421, 2-[3-(3-{1-[(oxan-4-yl)amino]cyclopropyl}pyrrolidin-1-yl)-1,2,4-triazin-6-yl]-5-(1H-pyrazol-4-yl)phenol] |
| ≤ 100 | CC(C)NC1(C)CCN(c2ncc(-c3ccc(-c4cnn(C)c4)cc3O)nn2)C1 (stereo not drawn) [Cpd 422] |
| ≤ 100 | CC1(C)CC(Nc2cnc(-c3ccc(-c4cn[nH]c4)cc3O)nn2)C(F)C(C)(C)N1 (stereo not drawn) [Cpd 423, 2-{6-[(3-fluoro-2,2,6,6-tetramethylpiperidin-4-yl)amino]-1,2,4-triazin-3-yl}-5-(1H-pyrazol-4-yl)phenol] |
| ≤ 100 | [2H]C([2H])([2H])n1cc(-c2ccc(-c3ncc(NC4CC(C)(C)NC(C)(C)C4)nn3)c(O)c2)cn1 [Cpd 424, 5-[1-(^2H3)methyl-1H-pyrazol-4-yl]-2-{6-[(2,2,6,6-tetramethylpiperidin-4-yl)amino]-1,2,4-triazin-3-yl}phenol] |

| SMILES | IC50 [nM] |
| --- | --- |
| CN(c1ncc(-c2ccc(-c3cnn(C)c3)cc2O)nn1)[C@H]1C[C@]2(C)CC[C@](C)(C1)N2 [Cpd 408] | ≤ 100 |
| CN(c1cnc(-c2ccc(-c3ccncn3)cc2O)nn1)C1CC(C)(C)NC(C)(C)C1 [Cpd 411, 2-{6-[methyl(2,2,6,6-tetramethylpiperidin-4-yl)amino]-1,2,4-triazin-3-yl}-5-(pyrimidin-4-yl)phenol] | ≤ 100 |
| CN(c1cnc(-c2ccc(-c3cnccn3)cc2O)nn1)C1CC(C)(C)NC(C)(C)C1 [Cpd 412, 2-{6-[methyl(2,2,6,6-tetramethylpiperidin-4-yl)amino]-1,2,4-triazin-3-yl}-5-(pyrazin-2-yl)phenol] | ≤ 100 |
| CN(c1ncc(-c2ccc(-n3nccn3)cc2O)nn1)[C@H]1C[C@]2(C)CC[C@](C)(C1)N2 [Cpd 417] | ≤ 100 |
